Laboratory results published in patent US8859580B2 (Boehringer Ingelheim International GmbH, priority 2007, dated 2014).

Molecular target: T1, 11β-HSD1 (Homo sapiens, UniProt P28845)
T1 construct: detecting cortisol generated from cortisterone by human liver microsomes; from tissue; host or cells: human liver microsomes
Assay: In vitro inhibition of 11β-HSD1, HTRF detection of cortisol generated from cortisone by human liver microsomes
Assay type: biochemical
Details: 11β-HSD IC50 (nM), 1 hour at 37° C., pH 6.0, NADPH 200 μM, cortisone 80 nM, inhibition relative to carbenoxolone signal
Experimental: Cortisol generated in the reaction is then detected with a competitive immunoassay, involving two HTRF conjugates: cortisol linked to XL665 and anti-cortisol antibody labeled with Europium cryptate. The incubation period for detection reaction was typically 2 hours. […] The ratio of the two emission signals is then calculated (Em665*10000/Em615). […] Each assay also contained a calibration curve with cortisol to transform the fluorescent data into cortisol concentrations. Percent inhibition of each compound was determined relative to the carbenoxolone signal and IC50 curves were generated.

T1 sequence (P28845 whole entry): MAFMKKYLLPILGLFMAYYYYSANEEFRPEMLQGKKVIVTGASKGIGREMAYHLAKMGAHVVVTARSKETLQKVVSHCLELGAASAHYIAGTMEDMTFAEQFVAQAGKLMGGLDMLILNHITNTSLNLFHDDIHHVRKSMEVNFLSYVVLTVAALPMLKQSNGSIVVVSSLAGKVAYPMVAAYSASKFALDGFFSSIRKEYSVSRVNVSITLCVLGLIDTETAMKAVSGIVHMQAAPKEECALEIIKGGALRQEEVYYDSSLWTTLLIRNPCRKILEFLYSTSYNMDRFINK

Going from `CC(O)(c1cccc(C(=O)N2CC[C@@]3(C)c4cccc(O)c4C[C@@H]2C3(C)C)c1)C(F)(F)F` (stereo partly drawn) [Example 260, [(2R,6S)-10-Hydroxy-6,11,11-trimethyl-1,2,5,6-tetrahydro-4H-2,6-methano-benzo[d]azocin-3-yl]-[3-(2,2,2-trifluoro-1-hydroxy-1-methyl-ethyl)-phenyl]-methanone] to `CC1(C)[C@H]2Cc3c(O)cccc3[C@]1(C)CCN2C(=O)c1cccc(C(N)=O)c1` [Example 41, 3-[(2R,6S)-10-Hydroxy-6,11,11-trimethyl-1,2,5,6-tetrahydro-4H-2,6-methano-benzo[d]azocine-3-carbonyl]-benzamide], the IC50 rises from 181 nM to 589 nM (3.3-fold). The first is the more potent here.

`CC1(C)[C@H]2Cc3c(O)cccc3[C@]1(C)CCN2C(=O)c1cc(-c2ccccc2)n[nH]1` [Example 221, [(2R,6S)-10-Hydroxy-6,11,11-trimethyl-1,2,5,6-tetrahydro-4H-2,6-methano-benzo[d]azocin-3-yl]-(5-phenyl-2H-pyrazol-3-yl)-methanone] and `Cc1ccccc1C(=O)N1CC[C@@]2(C)c3cccc(O)c3C[C@@H]1C2(C)C` [Example 5, [(2R,6S)-10-Hydroxy-6,11,11-trimethyl-1,2,5,6-tetrahydro-4H-2,6-methano-benzo[d]azocin-3-yl]-o-tolyl-methanone] are within 1.5-fold of each other in IC50: 2430 nM for the first, 3100 nM for the second.

`N#CC12CCN(C(=O)c3ccc4nc[nH]c4c3)C(Cc3ccc(O)cc31)C2` (centres unmarked) [Example 226, 3-(3H-Benzoimidazole-5-carbonyl)-8-hydroxy-2,3,4,5-tetrahydro-1H-2,6-methano-benzo[d]azocine-6-carbonitrile] and `COC(=O)C12CCN(C(=O)c3ccc4nc[nH]c4c3)C(Cc3ccc(O)cc31)C2` (centres unmarked) [Example 212, 3-(3H-Benzoimidazole-5-carbonyl)-8-hydroxy-2,3,4,5-tetrahydro-1H-2,6-methano-benzo[d]azocine-6-carboxylic acid methyl ester] are within 1.5-fold of each other in IC50: 1410 nM for the first, 1940 nM for the second.

First: COc1cc2c(cc1O)C1(C)CCN(C(=O)c3ccc4nc[nH]c4c3)C(C2)C1(C)C (centres unmarked) [Example 73, (3H-Benzoimidazol-5-yl)-(8-hydroxy-9-methoxy-6,11,11-trimethyl-1,2,5,6-tetrahydro-4H-2,6-methano-benzo[d]azocin-3-yl)-methanone]
Second: Cc1cc2c(cc1O)[C@]1(C)CCN(C(=O)c3ccc4nc[nH]c4c3)[C@H](C2)C1(C)C (stereo in doubt) [Example 65, (3H-Benzoimidazol-5-yl)-[(2R,6S)-8-hydroxy-6,9,11,11-tetramethyl-1,2,5,6-tetrahydro-4H-2,6-methano-benzo[d]azocin-3-yl]-methanone]
The IC50 of the first is 3-fold higher: 88 nM for the first, 29 nM for the second.

First: CC1(C)[C@H]2Cc3cc(-c4ccccc4)ccc3[C@]1(C)CCN2C(=O)c1ccc2nc[nH]c2c1 [Example 102, (3H-Benzoimidazol-5-yl)-[(2R,6S)-6,11,11-trimethyl-9-phenyl-1,2,5,6-tetrahydro-4H-2,6-methano-benzo[d]azocin-3-yl]-methanone]
Second: CC(=O)c1ccc2c(c1)C[C@H]1N(C(=O)c3ccc4nc[nH]c4c3)CC[C@]2(C)C1(C)C [Example 205, 1-[(2R,6S)-3-(3H-Benzoimidazole-5-carbonyl)-6,11,11-trimethyl-1,2,3,4,5,6-hexahydro-2,6-methano-benzo[d]azocin-9-ayl]-ethanone]
The IC50 of the first is 38-fold higher: 1460 nM for the first, 38 nM for the second.

`CC1(C)[C@H]2Cc3c(O)cccc3[C@]1(C)CCN2C(=O)c1n[nH]c2c1CCC2` [Example 220, [(2R,6S)-10-Hydroxy-6,11,11-trimethyl-1,2,5,6-tetrahydro-4H-2,6-methano-benzo[d]azocin-3-yl]-(1,4,5,6-tetrahydro-cyclopentapyrazol-3-yl)-methanone] and `Cn1nc(C(=O)N2CC[C@@]3(C)c4cccc(O)c4C[C@@H]2C3(C)C)c2ccccc21` [Example 194, [(2R,6S)-10-Hydroxy-6,11,11-trimethyl-1,2,5,6-tetrahydro-4H-2,6-methano-benzo[d]azocin-3-yl]-(1-methyl-1H-indazol-3-yl)-methanone] are within 1.5-fold of each other in IC50: 549 nM for the first, 642 nM for the second.

`CCOC(=O)c1ccc2c(c1)CC1N(C(=O)c3ccc4nc[nH]c4c3)CCC2(C)C1(C)C` (centres unmarked) [Example 97, 3-(1H-Benzoimidazole-5-carbonyl)-6,11,11-trimethyl-1,2,3,4,5,6-hexahydro-2,6-methano-benzo[d]azocine-9-carboxylic acid ethyl ester] and `CNC(=O)c1ccc2c(c1)CC1N(C(=O)c3ccc4nc[nH]c4c3)CCC2(C)C1(C)C` (centres unmarked) [Example 162, 3-(3H-Benzoimidazole-5-carbonyl)-6,11,11-trimethyl-1,2,3,4,5,6-hexahydro-2,6-methano-benzo[d]azocine-9-carboxylic acid methylamide] are within 1.5-fold of each other in IC50: 1130 nM for the first, 1090 nM for the second.

Going from `CC1(C)[C@H]2Cc3ccccc3[C@]1(C)CCN2C(=O)c1c[nH]c2ccccc12` [Example 259, (1H-Indol-3-yl)-[(2R,6S)-6,11,11-trimethyl-1,2,5,6-tetrahydro-4H-2,6-methano-benzo[d]azocin-3-yl]-methanone] to `CC1(C)[C@H]2Cc3ccccc3[C@]1(C)CCN2C(=O)c1ccc(O)nc1` [Example 303, (6-Hydroxy-pyridin-3-yl)-[(2R,6S)-6,11,11-trimethyl-1,2,5,6-tetrahydro-4H-2,6-methano-benzo[d]azocin-3-yl)-methanone], the IC50 rises from 115 nM to 717 nM (6.2-fold). The first is the more potent here.

`Cc1ncc(-c2ccc3c(c2)[C@]2(C)CCN(C(=O)c4ccc5nc[nH]c5c4)[C@H](C3)[C@H]2C)cn1` [Example 315, (3H-Benzoimidazol-5-yl)-[(2R,6R,11S)-6,11-dimethyl-8-(2-methyl-pyrimidin-5-yl)-1,2,5,6-tetrahydro-4H-2,6-methano-benzo[d]azocin-3-yl]-methanone] and `C[C@@H]1[C@H]2Cc3ccc(-c4ccc(=O)n(C)n4)cc3[C@]1(C)CCN2C(=O)c1ccc2nc[nH]c2c1` [Example 290, 6-[(2R,6R,11S)-3-(3H-Benzoimidazole-5-carbonyl)-6,11-dimethyl-1,2,3,4,5,6-hexahydro-2,6-methano-benzo[d]azocin-8-yl]-2-methyl-2H-pyridazin-3-one] are within 1.5-fold of each other in IC50: 61 nM for the first, 72 nM for the second.

`CC1(C)[C@H]2Cc3cc4nc(-c5ccnnc5)[nH]c4cc3[C@]1(C)CCN2C(=O)c1ccc2nc[nH]c2c1` [Example 276, (3H-Benzoimidazol-5-yl)-[(6R,10S)-5,6,7,8,9,10-hexahydro-10,12,12-trimethyl-2-pyridazin-4-yl-6,10-methano-imidazo[5,4-i][3]benzazocin-7-yl]-methanone] and `Cc1cc2c(cc1O)C[C@H]1N(C(=O)c3ccc4nc[nH]c4c3)CC[C@]2(C)C1(C)C` (stereo in doubt) [Example 67, (3H-Benzoimidazol-5-yl)-[(2R,6S)-9-hydroxy-6,8,11,11-tetramethyl-1,2,5,6-tetrahydro-4H-2,6-methano-benzo[d]azocin-a 3-yl]-methanone] are within 1.5-fold of each other in IC50: 34 nM for the first, 32 nM for the second.

First: CC1(C)[C@H]2Cc3c(O)cccc3[C@]1(C)CCN2C(=O)c1ccc(C#N)cc1 [Example 13]
Second: CC1(C)[C@H]2Cc3c(O)cccc3[C@]1(C)CCN2C(=O)c1ccc(N2CCNCC2)cc1 [Example 26, [(2R,6S)-10-Hydroxy-6,11,11-trimethyl-1,2,5,6-tetrahydro-4H-2,6-methano-benzo[d]azocin-3-yl]-(4-piperazin-1-yl-phenyl)-methanone]
The IC50 of the first is 1.8-fold lower: 1610 nM for the first, 2890 nM for the second.

`CC(=O)N1CCC(c2nc3cc4c(cc3[nH]2)[C@]2(C)CCN(C(=O)c3ccc5nc[nH]c5c3)[C@H](C4)C2(C)C)CC1` [Example 269, [(6R,10S)-2-(1-Acetyl-piperidin-4-yl)-5,6,7,8,9,10-hexahydro-10,12,12-trimethyl-6,10-methano-imidazo[5,4-i][3]benzazocin-7-yl]-(3H-benzoimidazol-5-yl)-methanone] and `Cc1cc2nc[nH]c2cc1C(=O)N1CC[C@@]2(C)c3cccc(O)c3C[C@@H]1C2(C)C` [Example 210, [(2R,6S)-10-Hydroxy-6,11,11-trimethyl-1,2,5,6-tetrahydro-4H-2,6-methano-benzo[d]azocin-3-yl]-(6-methyl-3H-benzoimidazol-5-yl)-methanone] are within 1.5-fold of each other in IC50: 63 nM for the first, 68 nM for the second.

Compared with `CC1(C)C2Cc3ccc(O)cc3C1(O)CCN2C(=O)c1ccc2nc[nH]c2c1` (centres unmarked) [Example 56, (3H-Benzoimidazol-5-yl)-(6,8-dihydroxy-11,11-dimethyl-1,2,5,6-tetrahydro-4H-4,6-methano-benzo[d]azocin-3-vl)-methanone], `C[C@@H]1[C@H]2Cc3ccc(CN)cc3[C@]1(C)CCN2C(=O)c1ccc2nc[nH]c2c1` [Example 172, [(2R,6R,11S)-8-Aminomethyl-6,11-dimethyl-1,2,5,6-tetrahydro-4H-2,6-methano-benzo[d]azocin-3-yl]-(3H-benzoimidazol-5-yl)-methanone] is 2.4-fold higher in IC50: 725 nM for the first, 1720 nM for the second. The first is the more potent here.

Going from `O=C(c1ccc2nc[nH]c2c1)N1CCC2CC1Cc1ccccc12` (centres unmarked) [Example 60, (3H-Benzoimidazol-5-yl)-(1,2,5,6-tetrahydro-4H-2,6-methano-benzo[d]azocin-3-yl)-methanone] to `CCOC(=O)c1ccc2c(c1)[C@]1(C)CCN(C(=O)c3ccc4nc[nH]c4c3)[C@H](C2)[C@H]1C` [Example 91, (2R,6R,11S)-3-(3H-Benzoimidazole-5-carbonyl)-6,11-dimethyl-1,2,3,4,5,6-hexahydro-2,6-methano-benzo[d]azocine-8-carboxylic acid ethyl ester], the IC50 rises from 228 nM to 711 nM (3.1-fold). The first is the more potent here.

Same assay, conditions: 1 hour at 37° C., pH 6.0, NADPH 200 μM, cortisone 80 nM, inhibition relative to carbenoxolone signal, read-out: 11β-HSD IC50

In the case of `C[C@H]1[C@H]2CC3=CC(C#N)CC=C3[C@]1(C)CCN2C(=O)c1ccc2nc[nH]c2c1` (stereo partly drawn) [Example 236, (2R,6R,11R)-3-(3H-Benzoimidazole-5-carbonyl)-6,11-dimethyl-1,2,3,4,5,6,8,9-octahydro-2,6-methano-benzo[d]azocine-9-carbonitrile], the IC50 is reported as 189 nM.
